Assay results published in ChEMBL document CHEMBL1909046, “DrugMatrix in vitro pharmacology data”.

Key:
[1] = DRUGMATRIX: GABAA, Flunitrazepam, Central radioligand binding (ligand: [3H] Flunitrazepam); assay type: cell membranes, Rattus norvegicus, Wistar, Brain, Membrane; conditions: Not Active = under 50% inhibition at 10 µM
Cytochrome P450 3A4 = Cytochrome P450 3A4 (Homo sapiens, UniProt P08684); conditions: bti-tn-5b1-4; note: in other assays of this panel Not Active means under 50% inhibition at 10 µM
Cytochrome P450 3A4, sequence (P08684 whole entry): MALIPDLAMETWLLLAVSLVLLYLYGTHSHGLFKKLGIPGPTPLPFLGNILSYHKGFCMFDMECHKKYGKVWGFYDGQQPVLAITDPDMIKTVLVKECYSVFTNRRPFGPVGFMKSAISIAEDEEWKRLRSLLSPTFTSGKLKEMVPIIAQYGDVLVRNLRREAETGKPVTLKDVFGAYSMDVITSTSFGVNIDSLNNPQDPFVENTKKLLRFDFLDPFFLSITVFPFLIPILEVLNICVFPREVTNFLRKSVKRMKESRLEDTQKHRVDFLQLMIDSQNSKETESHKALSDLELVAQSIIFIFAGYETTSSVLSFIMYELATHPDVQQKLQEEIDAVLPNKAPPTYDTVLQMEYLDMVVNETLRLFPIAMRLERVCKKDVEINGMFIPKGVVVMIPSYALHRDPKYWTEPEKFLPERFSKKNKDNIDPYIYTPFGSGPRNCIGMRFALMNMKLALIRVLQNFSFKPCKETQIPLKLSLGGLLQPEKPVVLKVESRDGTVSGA

[2] = DRUGMATRIX: Phosphodiesterase PDE3 enzyme inhibition (substrate: [3H]cAMP + cAMP); assay type: tissue-based, Homo sapiens; conditions: platelet; Not Active = under 50% inhibition at 10 µM
[3] = molecular target: T1, Vasoactive intestinal polypeptide receptor 1 (Homo sapiens, UniProt P32241); assay type: cell membranes, Membrane; conditions: ht-29; note: in other assays of this panel Not Active means under 50% inhibition at 10 µM
T1 sequence (P32241 whole entry): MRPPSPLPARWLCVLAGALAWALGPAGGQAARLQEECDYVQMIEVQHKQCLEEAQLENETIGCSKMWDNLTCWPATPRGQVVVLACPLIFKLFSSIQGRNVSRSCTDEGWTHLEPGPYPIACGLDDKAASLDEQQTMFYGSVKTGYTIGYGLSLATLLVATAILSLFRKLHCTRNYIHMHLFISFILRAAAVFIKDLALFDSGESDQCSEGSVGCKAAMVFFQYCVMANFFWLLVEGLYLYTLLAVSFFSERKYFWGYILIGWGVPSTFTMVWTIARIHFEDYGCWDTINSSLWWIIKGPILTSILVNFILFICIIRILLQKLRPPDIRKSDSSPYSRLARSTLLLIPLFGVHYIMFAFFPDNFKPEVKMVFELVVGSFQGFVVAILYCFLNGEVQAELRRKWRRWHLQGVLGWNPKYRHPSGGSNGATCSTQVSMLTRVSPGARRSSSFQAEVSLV

[4] = molecular target: C-C chemokine receptor type 5 (Homo sapiens, UniProt P51681); assay type: cell membranes, Membrane; conditions: hek293; note: in other assays of this panel Not Active means under 50% inhibition at 10 µM
C-C chemokine receptor type 5, sequence (P51681 whole entry): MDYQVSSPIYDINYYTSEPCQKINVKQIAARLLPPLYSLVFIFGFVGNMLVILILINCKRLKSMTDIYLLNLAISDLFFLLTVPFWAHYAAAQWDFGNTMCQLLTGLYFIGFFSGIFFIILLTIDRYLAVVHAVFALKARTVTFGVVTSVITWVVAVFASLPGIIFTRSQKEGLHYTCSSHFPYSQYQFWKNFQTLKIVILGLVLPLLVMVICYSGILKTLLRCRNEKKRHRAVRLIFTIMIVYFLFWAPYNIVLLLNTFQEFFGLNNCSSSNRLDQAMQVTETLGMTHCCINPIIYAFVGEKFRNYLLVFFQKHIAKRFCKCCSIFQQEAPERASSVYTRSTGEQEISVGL

[5] = molecular target: Beta-1 adrenergic receptor (Homo sapiens, UniProt P08588); test: DRUGMATRIX: Adrenergic beta1 radioligand binding (ligand: [125I] Cyanopindolol); assay type: cell membranes, CHO-K1, Membrane; conditions: cho-k1; Not Active = under 50% inhibition at 10 µM
Beta-1 adrenergic receptor, sequence (P08588 whole entry): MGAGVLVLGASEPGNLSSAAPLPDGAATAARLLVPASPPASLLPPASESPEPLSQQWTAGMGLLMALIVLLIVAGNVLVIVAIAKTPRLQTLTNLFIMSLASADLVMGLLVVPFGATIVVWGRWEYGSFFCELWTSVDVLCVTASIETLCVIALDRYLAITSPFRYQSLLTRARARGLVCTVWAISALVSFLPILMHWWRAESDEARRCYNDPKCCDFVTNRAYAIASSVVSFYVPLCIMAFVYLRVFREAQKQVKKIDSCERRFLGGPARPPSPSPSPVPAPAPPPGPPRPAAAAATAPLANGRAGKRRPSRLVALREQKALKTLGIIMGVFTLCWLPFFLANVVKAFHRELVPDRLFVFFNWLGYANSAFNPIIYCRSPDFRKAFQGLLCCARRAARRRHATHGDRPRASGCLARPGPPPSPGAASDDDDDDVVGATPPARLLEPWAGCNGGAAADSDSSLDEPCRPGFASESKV

Cannabinoid receptor 1 = Cannabinoid receptor 1 (Homo sapiens, UniProt P21554); assay type: cell membranes, Membrane; conditions: chem-1; note: in other assays of this panel Not Active means under 50% inhibition at 10 µM
Cannabinoid receptor 1, sequence (P21554 whole entry): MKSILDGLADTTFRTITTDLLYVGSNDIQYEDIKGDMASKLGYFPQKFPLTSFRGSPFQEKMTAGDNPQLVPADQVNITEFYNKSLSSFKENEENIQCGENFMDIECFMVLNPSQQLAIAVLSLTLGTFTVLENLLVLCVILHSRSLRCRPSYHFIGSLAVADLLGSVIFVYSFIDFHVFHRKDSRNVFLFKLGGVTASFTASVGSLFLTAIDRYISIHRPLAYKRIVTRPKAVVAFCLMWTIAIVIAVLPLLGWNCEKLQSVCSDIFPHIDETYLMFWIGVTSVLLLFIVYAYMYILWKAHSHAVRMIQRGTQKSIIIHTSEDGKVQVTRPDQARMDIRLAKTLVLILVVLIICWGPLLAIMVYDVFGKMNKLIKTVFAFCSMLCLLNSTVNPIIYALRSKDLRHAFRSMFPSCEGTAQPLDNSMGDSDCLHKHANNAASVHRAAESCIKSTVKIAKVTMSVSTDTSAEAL

[6] = molecular target: Epidermal growth factor receptor (Homo sapiens, UniProt P00533); test: DRUGMATRIX: Protein Tyrosine Kinase, EGF Receptor enzyme inhibition (substrate: Poly(Glu:Tyr)); assay type: cell-based, Insect cells; conditions: Not Active = under 50% inhibition at 10 µM

Compound	IC50 [1]	Ki [1]	IC50 (Cytochrome P450 3A4)	Ki (Cytochrome P450 3A4)	IC50 [2]	Ki [2]	IC50 [3]	IC50 [4]	IC50 [5]	IC50 (Cannabinoid receptor 1)	IC50 ([6]; insect cells)	IC50 ([6]; read-out: IC50) [nM]	Ki [3]	Ki [4]	Ki [5]	Ki (Cannabinoid receptor 1)	IC50 ([6]; insect cells, read-out: IC50) [nM]	Ki ([6]; insect cells)
C=C(C)C1(O)OC(=O)C=C1OC (configuration not stated) [PENICILLIC ACID]	Not Active	Not Active	Not Active	Not Active	Not Active	Not Active	Not Active	Not Active	Not Active	Not Active	Not Active	–	–	–	–	–	–	–
CCCN1C[C@H](CSC)C[C@@H]2c3cccc4[nH]cc(c34)C[C@H]21 [PERGOLIDE]	Not Active	Not Active	Not Active	Not Active	Not Active	Not Active	Not Active	Not Active	Not Active	Not Active	Not Active	–	–	–	–	–	–	–
C1CCC(C(CC2CCCCN2)C2CCCCC2)CC1 (configuration not stated) [PERHEXILINE]	Not Active	Not Active	Not Active	Not Active	Not Active	Not Active	Not Active	Not Active	Not Active	Not Active	–	1490	–	–	–	–	–	–
CCOc1ccc(NC(C)=O)cc1 [PHENACETIN]	Not Active	Not Active	Not Active	Not Active	Not Active	Not Active	Not Active	Not Active	Not Active	Not Active	Not Active	–	–	–	–	–	–	–
CNNCc1ccc(C(=O)NC(C)C)cc1 [PROCARBAZINE]	Not Active	Not Active	Not Active	Not Active	Not Active	Not Active	Not Active	Not Active	Not Active	Not Active	Not Active	–	–	–	–	–	–	–
CC(O)CO (configuration not stated) [PROPYLENE GLYCOL]	Not Active	Not Active	Not Active	Not Active	Not Active	Not Active	Not Active	Not Active	Not Active	Not Active	Not Active	–	–	–	–	–	–	–
CADMIUM ACETATE	Not Active	Not Active	Not Active	Not Active	Not Active	Not Active	Not Active	Not Active	Not Active	Not Active	–	–	Not Active	Not Active	Not Active	Not Active	244	–
LEAD (II) ACETATE	Not Active	Not Active	Not Active	Not Active	Not Active	Not Active	Not Active	Not Active	Not Active	Not Active	Not Active	–	Not Active	Not Active	Not Active	Not Active	–	Not Active
LIPOPOLYSACCHARIDE E. COLI O55:B5	Not Active	Not Active	Not Active	Not Active	Not Active	Not Active	Not Active	Not Active	Not Active	Not Active	–	–	Not Active	Not Active	Not Active	Not Active	188	–
